Values quoted from earlier work, collected in patent US20060019940A1, “Novel benzoxazocines and their therapeutic use” (priority 2002, published 2006).

Experiments:
[1] = test system: synaptosomal uptake of dopamine, norepinephrine and serotonin; details: order of potency (+)-nefopam>(±)-nefopam>(−)-nefopam
[2] = order of potency (+)-nefopam>(±)-nefopam>(−)-nefopam

SMILES: CN1CCO[C@@H](c2ccccc2)c2ccccc2C1 [(+)-nefopam]
- dopamine, norepinephrine and serotonin uptake inhibitory properties compared with (−)-nefopam [1]: more potent
- analgesic properties compared with (−)-nefopam [2]: more potent
